According to publication PMC9298260, “An Immunomodulatory Peptide Dendrimer Inspired from Glatiramer Acetate” (Angewandte Chemie (International Ed. in English), 2021):

Key:
Type in all cases: cell-based, human
lymphocytes = test: IL-1Ra in supernatants of lymphocytes (rest of leukocytes after Percoll), ELISA; conditions: rest of leukocytes after Percoll gradient, 50-25 µg/mL, 48 h, n = 2
Protocol: Similar donor dependent responses of cytokine release to GA have been reported for IL‐27.[38]
Figure S3. Cytokine level of IL-1Ra in supernatants of monocytes for active dendrimers and analogues evaluated by ELISA assay on primary human monocytes of healthy donors. 5×10^4 cells/200 µL in 96 well plates, were incubated with dendrimers or GA as a control for 48 h in presence or absence of LPS (100 ng/mL), in a range of concentrations (100-12.5 µg/mL) (mean ± SD, n = 3 different experiments).
Figure S4. Cytokine level of IL-1Ra in supernatants of monocytes enriched fraction (a) and the rest of leukocytes (b) for active dendrimers and analogues evaluated by ELISA assay.
Monocytes fraction was separated from whole PBMC by Percoll density gradient centrifugation. 5×10^4 cells/200 µL in 96 well plates were incubated with dendrimers or GA (50-25 µg/mL) as a control for 48 h (mean ± SD, n = 2 different experiments). […]

IL-1Ra = IL-1Ra time profile / mRNA level in monocytes, RT-qPCR; conditions: 50 µg/mL, with and without LPS, without LPS detected only after 18 h
Protocol: Figure 2 Cytokine level of IL‐1Ra in supernatants of primary human monocytes of healthy donors treated with peptide dendrimers, evaluated by ELISA (bars, left vertical axis) and mRNA levels (▴, right vertical axis). […] For mRNA levels evaluation, 2×10^6 cells 3 mL^−1 in 6 well plates were incubated with 50 μg mL^−1 dendrimer or GA for 18 h.
To assess the activity requirements for 1 and 4, we performed a structure–activity relationship (SAR) study on the level of induced IL‐1Ra release measured by immunoassay, which we verified in selected cases at the mRNA level by RT‐qPCR (Figure 2).
For closer characterization, we selected dendrimer 1 due to its smaller size and the presence of a cysteine residue that could be used for labelling. […] Furthermore, dendrimer 1 induced the release of IL‐1Ra both with and without LPS activation, but in the latter case the effect was detected only after 18 h incubation (Figure S5e/f).
Enriched monocytes after Percoll centrifugation (4×10^6 cells/3 mL well; 6-well plates) were preincubated for 1 h with or without compounds in RPMI-1640 medium supplemented with 10% heat-inactivated FBS, 50 μg/mL streptomycin, 50 U/mL penicillin, 2 mM L-glutamine, and then incubated for the indicated duration. After the incubation cells were collected, total RNA was extracted, reverse transcribed and analyzed by SYBR Green Master Mix. […]

PBMC = conditions: 100-12.5 µg/mL, 24 h, AlamarBlue further 12 h, fluorescence, normalized to untreated, n = 3
Text: To assess the activity requirements for 1 and 4, we performed a structure–activity relationship (SAR) study on the level of induced IL‐1Ra release measured by immunoassay, which we verified in selected cases at the mRNA level by RT‐qPCR (Figure 2). […]
and centrifuged at the same conditions. PBMC collected from the interface were washed 3 times with supplemented RPMI.
Monocytes purification using magnetic beads labelling Isolation KIT II
Monocytes were purified from whole PBMC by negative selection, all procedures were carried out according to manufacturer protocol. Briefly, the non-monocytes were labeled with a cocktail of biotin-conjugated monoclonal antibodies as a primary labeling reagent. Then as a secondary labeling reagent were used anti-biotin microbeads. The mixture was run through the MACS column (MACS, Miltenyi Biotech) in the magnetic field of a MACS Separator (MACS, Miltenyi Biotech). […]
supplemented with 10% heat-inactivated FBS, 50 μg/mL streptomycin, 50 U/mL penicillin, 2 mM L-glutamine, and 5 μg/mL. […] Then, plates were measured on a Tecan Infinite M1000 Pro plate reader at λex= 560 nm and λem= 590 nm and value normalized to the […]
Figure S1. […] After incubation 50 µl of 50% AlamarBlue was added in supplemented medium for additional 12 h, then fluorescence was measured according to manufacture protocol. […]

In the case of “(KA)8(KAK)4(KEKA)2KAKEAYCA-NH2 [compound 1, G3 peptide dendrimer]”, the “induction of IL-1Ra in lymphocytes” value (lymphocytes) is reported as “did not occur”, the “release of IL-1Ra, time profile” value (IL-1Ra) is reported as “induced” and the “viability of PBMC / cellular toxicity” value (PBMC) is reported as “did not show measurable cellular toxicity”.
